Tested on: GST-tagged Cn
Assay: PEPperPRINT peptide microarray binding assay with GST-tagged Cn
Summary of the method: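 Qualitative binding: peptides printed on a PEPperPRINT microarray were incubated overnight at 4 °C with 1 mg/ml GST-tagged Cn, then detected with Alexa-Fluor 647 anti-GST antibody. Log fluorescence was baseline-corrected, averaged over duplicate spots, Z-normalized and averaged across five repeats.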

[1] = GST-tagged Cn, max over the chip locations
[2] = GST-tagged Cn, mean over the chip locations
[3] = max over the chip locations listed for the peptide (two spots)
[4] = mean over the chip locations listed for the peptide (two spots)
[5] = GST-tagged Cn, max over the spots on the chip (two locations)
[6] = GST-tagged Cn, mean over the spots on the chip (two locations)
[7] = GST-tagged Cn, max over the chip spots listed under Location on chip
[8] = GST-tagged Cn, mean over the chip spots listed under Location on chip
[9] = GST-tagged Cn, max over the spots named in Location on chip
[10] = GST-tagged Cn, mean over the spots named in Location on chip
[11] = max over the spots listed under Location on chip
[12] = mean over the spots listed under Location on chip

DSLKIPQVRMRIDSAT [SeqRBM_3711]
Chip Fluorescence (max) [1]: -0.1629 | Chip Fluorescence (mean) [2]: -1.069

KRMEPIAIIITDTEIS [SeqAKAP79_Pan_troglodytes]
Chip Fluorescence (max) [3]: 24.574 | Chip Fluorescence (mean) [4]: 3.689

KQMAPPAINIDFAPTN [SeqRBMlowT_1821]
Chip Fluorescence (max) [1]: -0.4908 | Chip Fluorescence (mean) [2]: -3.72

SQFDQVHYGLHIATFH [Seqshuffled_4372]
Chip Fluorescence (max) [5]: 1.111 | Chip Fluorescence (mean) [6]: 0.4902

RNPGQALLTLEGHSAS [SeqRBMlowT_5868]
Chip Fluorescence (max) [7]: 0.6524 | Chip Fluorescence (mean) [8]: -0.2838

TFWANPQYKIHLEEED [SeqRBMlowT_4653]
Chip Fluorescence (max) [3]: 4.098 | Chip Fluorescence (mean) [4]: 0.694

SSLECPHVQVTVSGQR [SeqRBM_6881]
Chip Fluorescence (max) [9]: 1.51 | Chip Fluorescence (mean) [10]: 0.9297

TFTDNPQYTIKLVETD [SeqRBM_9774]
Chip Fluorescence (max) [7]: 0.9523 | Chip Fluorescence (mean) [8]: 0.09387

RAYINPFMTFTDGGRR [SeqRBMlowT_3400]
Chip Fluorescence (max) [11]: 3.064 | Chip Fluorescence (mean) [12]: 0.978

ASTSTFPQQQTAHKKQ [SeqBOI2_Podospora_anserina]
Chip Fluorescence (max) [1]: -0.0111 | Chip Fluorescence (mean) [2]: -1.452

KVTTLKSVSPAIAAPE [Seqshuffled_1741]
Chip Fluorescence (max) [7]: 0.7857 | Chip Fluorescence (mean) [8]: -0.5033

KKMSPPCIVVSPPEED [SeqRBMlowT_306]
Chip Fluorescence (max) [3]: 6.125 | Chip Fluorescence (mean) [4]: 1.9169

LNLKIPTIAKADITAT [SeqRBM_4458]
Chip Fluorescence (max) [9]: 1.846 | Chip Fluorescence (mean) [10]: -0.3422

ADEAIPEITITSAELP [SeqRBMlowT_2514]
Chip Fluorescence (max) [3]: 17.6628 | Chip Fluorescence (mean) [4]: 2.99

FSNKASKARRMEPLSI [SeqRBM_824]
Chip Fluorescence (max) [5]: 1.106 | Chip Fluorescence (mean) [6]: -0.01462

TFWTNPQYTITLEEPD [SeqRBMlowT_2235]
Chip Fluorescence (max) [9]: 1.679 | Chip Fluorescence (mean) [10]: 0.2149

TFWTNPQYRIKLTDAD [SeqRBMlowT_4313]
Chip Fluorescence (max) [7]: 0.4524 | Chip Fluorescence (mean) [8]: -0.5715

ADEAGPEIVITPTELP [SeqRBMlowT_3142]
Chip Fluorescence (max) [1]: 0.161 | Chip Fluorescence (mean) [2]: -1.962

DSSANPEITITPAELP [SeqRBMlowT_4460]
Chip Fluorescence (max) [11]: 2.624 | Chip Fluorescence (mean) [12]: 0.4288

RAYMNPFMTFIDGGHR [SeqRBMlowT_1518]
Chip Fluorescence (max) [9]: 1.378 | Chip Fluorescence (mean) [10]: 0.8819

TFWTNPQFKITLEDPD [SeqRBMlowT_205]
Chip Fluorescence (max) [9]: 1.84 | Chip Fluorescence (mean) [10]: -0.4239

CDHMGLDIVIFVTELC [SeqRBM_1060]
Chip Fluorescence (max) [3]: 8.388 | Chip Fluorescence (mean) [4]: 2.901

TFWTNPQFKVKLTDPD [SeqRBMlowT_2929]
Chip Fluorescence (max) [1]: -0.3202 | Chip Fluorescence (mean) [2]: -2.672

TFWTNPQYRITVTEPD [SeqRBMlowT_7465]
Chip Fluorescence (max) [7]: 0.8889 | Chip Fluorescence (mean) [8]: -0.4265

SDEAGVRIVITVTEAP [SeqRBMlowT_9535]
Chip Fluorescence (max) [5]: 1.153 | Chip Fluorescence (mean) [6]: -0.5729

PFEKNDIQQIHLEEHP [Seqshuffled_9861]
Chip Fluorescence (max) [9]: 1.396 | Chip Fluorescence (mean) [10]: 0.78

ADEAGVQIVITVTELP [SeqRBMlowT_1446]
Chip Fluorescence (max) [3]: 3.577 | Chip Fluorescence (mean) [4]: 1.112

RNPGIALLSLRGHKAQ [SeqRBMlowT_8792]
Chip Fluorescence (max) [5]: 1.2142 | Chip Fluorescence (mean) [6]: 0.3008

GTETTPSIVVHVCEDD [SeqRBMlowT_128]
Chip Fluorescence (max) [3]: 4.964 | Chip Fluorescence (mean) [4]: 1.374

TFWTNPQFNVTLSEAD [SeqRBM_9395]
Chip Fluorescence (max) [11]: 2.777 | Chip Fluorescence (mean) [12]: 0.5231

TFWTNPQFVITLEEVD [SeqRBMlowT_928]
Chip Fluorescence (max) [11]: 3.091 | Chip Fluorescence (mean) [12]: 0.8732

STAALPKFDFSNPHIS [SeqRBM_9234]
Chip Fluorescence (max) [11]: 2.8681 | Chip Fluorescence (mean) [12]: 0.4605

NVSSSPRVTLKIPQHR [SeqRBM_7185]
Chip Fluorescence (max) [5]: 1.102 | Chip Fluorescence (mean) [6]: 0.1459

PGLYDNALGIEQFTLS [SeqRBMlowT_2874]
Chip Fluorescence (max) [3]: 13.8972 | Chip Fluorescence (mean) [4]: 1.628

KERDVNYYIIHPVGSA [Seqshuffled_9799]
Chip Fluorescence (max) [3]: 3.906 | Chip Fluorescence (mean) [4]: 0.5831

TTSTNPQIRITDHEDE [Seqshuffled_9411]
Chip Fluorescence (max) [5]: 1.2864 | Chip Fluorescence (mean) [6]: -7.047

RMMEPQNRGFKGCTES [Seqshuffled_509]
Chip Fluorescence (max) [3]: 6.671 | Chip Fluorescence (mean) [4]: 1.748

ADEAPPRITITPYELP [SeqRBMlowT_5415]
Chip Fluorescence (max) [3]: 3.784 | Chip Fluorescence (mean) [4]: 1.112

KAYMNPFMQFIDGGRR [SeqRBMlowT_560]
Chip Fluorescence (max) [3]: 4.3098 | Chip Fluorescence (mean) [4]: 0.3269

STSSLPTFSFSSPAPS [SeqRBMlowT_801]
Chip Fluorescence (max) [1]: -0.2979 | Chip Fluorescence (mean) [2]: -1.46

LSDNRPNVRMEAPMVQ [SeqRBM_9917]
Chip Fluorescence (max) [1]: 0.09814 | Chip Fluorescence (mean) [2]: -0.3526

TFWTNPQYKITLEEPD [SeqRBMlowT_54]
Chip Fluorescence (max) [5]: 1.133 | Chip Fluorescence (mean) [6]: -0.8126

TFWTNPQFRIKVEDPD [SeqRBMlowT_6818]
Chip Fluorescence (max) [5]: 1.08 | Chip Fluorescence (mean) [6]: -0.755

NDHNTNDWSFELGQTV [Seqshuffled_9000]
Chip Fluorescence (max) [3]: 3.477 | Chip Fluorescence (mean) [4]: 1.051

PQMAPPAINIDFAPTN [SeqRBMlowT_2475]
Chip Fluorescence (max) [9]: 1.458 | Chip Fluorescence (mean) [10]: -0.38

PDESTPEITITPAELP [SeqRBMlowT_5714]
Chip Fluorescence (max) [9]: 1.719 | Chip Fluorescence (mean) [10]: -0.09544

PVHTIHRVSLQDAGKY [SeqCEACAM5_Aedes_aegypti]
Chip Fluorescence (max) [7]: 0.8319 | Chip Fluorescence (mean) [8]: -0.7144

TFWSNPQFDIALDDDD [SeqRBM_1928]
Chip Fluorescence (max) [3]: 3.897 | Chip Fluorescence (mean) [4]: 1.75

TFWSNPQFKIKLEDPD [SeqRBMlowT_7428]
Chip Fluorescence (max) [9]: 1.373 | Chip Fluorescence (mean) [10]: 0.3282

TFWTNPQYRLWIVSVD [SeqRBM_2615]
Chip Fluorescence (max) [5]: 1.0899 | Chip Fluorescence (mean) [6]: -0.4347

QELFISNITVDHSGSY [SeqCEACAM5_Aotus_nancymaae]
Chip Fluorescence (max) [3]: 6.254 | Chip Fluorescence (mean) [4]: 1.438

AQSSQPPISTKYDARG [Seqshuffled_9482]
Chip Fluorescence (max) [7]: 0.6167 | Chip Fluorescence (mean) [8]: -0.6535

SQLAAPAINIDFAPTN [SeqRBMlowT_5061]
Chip Fluorescence (max) [1]: 0.08477 | Chip Fluorescence (mean) [2]: -0.8412

MTPAAPIVRLHIPSSV [SeqRBM_8521]
Chip Fluorescence (max) [7]: 0.4752 | Chip Fluorescence (mean) [8]: -0.03556

TFWTNPQFKITLEEPD [SeqRBMlowT_951]
Chip Fluorescence (max) [11]: 2.6 | Chip Fluorescence (mean) [12]: 0.9758

LNLKIPEVRLNIISAL [SeqRBMlowT_1835]
Chip Fluorescence (max) [1]: 0.09786 | Chip Fluorescence (mean) [2]: -0.5761

RAYINPFMQFTDGGRR [SeqRBMlowT_4069]
Chip Fluorescence (max) [5]: 1.3045 | Chip Fluorescence (mean) [6]: 0.5135

TFWTNPQYRVHVCDPD [SeqRBMlowT_293]
Chip Fluorescence (max) [9]: 1.378 | Chip Fluorescence (mean) [10]: -0.7162

KAYMSPFMSFIDGGRR [SeqRBMlowT_6614]
Chip Fluorescence (max) [11]: 2.798 | Chip Fluorescence (mean) [12]: 1.173

PSDPQPSIIVHACLED [SeqRBM_9284]
Chip Fluorescence (max) [11]: 3.302 | Chip Fluorescence (mean) [12]: 0.8695

KPFECPSIQITSISPN [SeqNFATC3_Homo_sapiens]
Chip Fluorescence (max) [7]: 0.8784 | Chip Fluorescence (mean) [8]: -0.3746

LTWTSLRYSVNDDKNT [Seqshuffled_9363]
Chip Fluorescence (max) [3]: 15.2815 | Chip Fluorescence (mean) [4]: 4.411

LKDEIPEVRLNIISSL [SeqRBMlowT_1013]
Chip Fluorescence (max) [9]: 1.476 | Chip Fluorescence (mean) [10]: 0.5558

TFWTNPQYRLKLEDPD [SeqRBMlowT_1296]
Chip Fluorescence (max) [3]: 7.375 | Chip Fluorescence (mean) [4]: 1.564

Source: PMC9928118, “Funneling modulatory peptide design with generative models: Discovery and characterization of disruptors of calcineurin protein-protein interactions” (PLOS Computational Biology, 2023)
